Laboratory results reported in patent publication US20250195521A1 (Revolution Medicines, Inc., priority 2020, published 2025).
pEC50, pIC50: −log10 of the molar value. Read-outs that look alike come from different tables or passages of the source.

Key:
[1] = test system: NCI-H358 cells (K-Ras G12C); assay: CellTiter-Glo cell viability, NCI-H358; assay type: cell-based, human; settings: K-Ras G12C, 5-day treatment, read-out: H358 Cell Viability IC50
How it was run: (§1)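 Endpoint: CellTiter-Glo luminescence on day 5, following ~30 min at room temperature. Data as (sample/mean DMSO)×100, four-parameter logistic fit.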

NRAS WT = NRAS WT (Homo sapiens (Human), UniProt P01111+P62937); assay: Ras-Raf disruption/FRET/MOA assay (BRAF RBD, Cyclophilin A); assay type: biochemical
How it was run: (§2)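 Ras-GMPPNP (12.5 nM), BRAF RBD (50 nM) and 25 μM Cyclophilin A were incubated with compound for 3 h at 25° C, then detected 1.5 h with anti-His Eu and anti-GST APC; IC50 values follow from the reduced TR-FRET ratio.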

KRAS G12D = KRAS G12D (Homo sapiens (Human), UniProt P01116+P62937, G12D); assay: as above; assay type: biochemical; settings: read-out: KRAS G12D FRET IC50
How it was run: (§3)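 25 μM tagless Cyclophilin A, 12.5 nM His6-Ras-GMPPNP and 50 nM GST-BRAF RBD in HEPES pH 7.3 buffer with 5 mM MgCl2, with compound (10-point 3-fold series from 30 μM final) for 3 h at 25 °C. Anti-His Eu and anti-GST APC then added for 1.5 h. IC50 from TR-FRET ratio decrease versus DMSO.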

KRAS WT = KRAS WT (Homo sapiens (Human), UniProt P01116+P62937); assay: as above; assay type: biochemical; settings: read-out: KRAS WT FRET data IC50
How it was run: as §3

KRAS G12V = KRAS G12V (Homo sapiens (Human), UniProt P01116+P62937, G12V); assay: as above; assay type: biochemical; settings: read-out: KRAS G12V FRET IC50
How it was run: as §3

KRAS G13D = KRAS G13D (Homo sapiens (Human), UniProt P01116+P62937, G13D); assay: as above; assay type: biochemical; settings: read-out: KRAS G13D FRET data IC50
How it was run: as §3

NRAS Q61R = NRAS Q61R (Homo sapiens (Human), UniProt P01111+P62937, Q61R); assay: as above; assay type: biochemical
How it was run: as §2

KRAS G13C = KRAS G13C (Homo sapiens (Human), UniProt P01116+P62937, G13C); assay: as above; assay type: biochemical; settings: read-out: KRAS G13C FRET IC50
How it was run: as §3

KRAS G12C = KRAS G12C (Homo sapiens (Human), UniProt P01116+P62937, G12C); assay: as above; assay type: biochemical; settings: read-out: KRAS G12C FRET IC50
How it was run: as §3

NRAS G12C = NRAS G12C (Homo sapiens (Human), UniProt P01111+P62937, G12C); assay: as above; assay type: biochemical; settings: read-out: NRAS G12C FRET data IC50
How it was run: as §2

KRAS G12S = KRAS G12S (Homo sapiens (Human), UniProt P01116+P62937, G12S); assay: as above; assay type: biochemical; settings: read-out: KRAS G12S FRET IC50
How it was run: as §3

[2] = test system: Capan-1 cells (K-Ras G12V); assay: CellTiter-Glo cell viability, Capan-1; assay type: cell-based, human; settings: K-Ras G12V, 5-day treatment, read-out: Capan-1 Cell Viability IC50
How it was run: as §1

[3] = test system: K-Ras G12C (NCI-H358 cells); assay: Potency assay: pERK in NCI-H358 cells; assay type: cell-based, human; settings: Homo sapiens; NCI-H358 cells, 4 hours; read-out: pERK EC50 (H358 KRAS G12C)
How it was run: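 Cells plated the day before were exposed for 4 h at 37° C, 5% CO2 to a 10-point, 3-fold DMSO dilution series (10 mM top stock), in duplicate. Phospho-ERK was read by AlphaLISA SureFire Ultra or by In-Cell Western with DRAQ5 DNA stain, and IC50 came from a 4-parameter sigmoidal fit.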

KRAS Q61H = KRAS Q61H (Homo sapiens (Human), UniProt P01116+P62937, Q61H); assay: Ras-Raf disruption/FRET/MOA assay (BRAF RBD, Cyclophilin A); assay type: biochemical
How it was run: as §3

NCI-H358 (K-Ras G12C) = assay: CellTiter-Glo cell viability assay, NCI-H358; assay type: cell-based, human; settings: Homo sapiens, NCI-H358, 120 h, 5-day treatment; read-out: H358 Cell Viability assay data (K-Ras G12C, IC50)
How it was run: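 After direct compound addition, plates were incubated to day 5 and equilibrated at room temperature for about 30 minutes before CellTiter-Glo reading. Values derive from luminescence relative to the DMSO mean, fitted with a four-parameter logistic model.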

[4] = target: K-Ras G12C(GMP-PNP) binding to BRAF RBD (Homo sapiens (Human), UniProt P01116+P62937, G12C); assay: Disruption of BRAF RBD interaction with K-Ras (FRET / MOA assay), K-Ras G12C; assay type: biochemical; settings: read-out: KRAS G12C FRET IC50
How it was run: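 Incubation of compound (up to 30 μM final, 3-fold steps) with GMP-PNP-type loaded Ras isoform, cyclophilin A and BRAF RBD ran 3 h at 25° C, followed by 1.5 h with detection antibodies. Disruption appears as a reduced TR-FRET ratio compared with DMSO controls, expressed as IC50.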

Chain of KRAS G13C (P01116 other isoform, or with tags, fused parts or gaps G13C): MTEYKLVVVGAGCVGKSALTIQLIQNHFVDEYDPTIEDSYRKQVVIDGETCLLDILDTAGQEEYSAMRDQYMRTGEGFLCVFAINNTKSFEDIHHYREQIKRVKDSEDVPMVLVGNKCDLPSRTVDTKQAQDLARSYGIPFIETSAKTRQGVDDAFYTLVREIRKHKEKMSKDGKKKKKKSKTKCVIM
Chain of KRAS G13C (P62937 whole entry): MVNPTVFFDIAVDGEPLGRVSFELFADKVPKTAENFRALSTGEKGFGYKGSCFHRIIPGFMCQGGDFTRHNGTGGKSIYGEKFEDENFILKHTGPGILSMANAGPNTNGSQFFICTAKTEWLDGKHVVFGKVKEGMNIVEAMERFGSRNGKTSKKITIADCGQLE
Chain of KRAS WT (P01116 other isoform, or with tags, fused parts or gaps): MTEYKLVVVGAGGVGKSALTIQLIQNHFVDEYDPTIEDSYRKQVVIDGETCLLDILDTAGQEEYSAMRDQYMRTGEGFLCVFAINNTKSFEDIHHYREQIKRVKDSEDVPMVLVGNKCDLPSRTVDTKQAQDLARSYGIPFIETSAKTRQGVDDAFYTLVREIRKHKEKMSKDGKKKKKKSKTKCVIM
Chain of KRAS WT (P62937 whole entry): as the sequence (P62937 whole entry) above
Chain of KRAS G12D (P01116 other isoform, or with tags, fused parts or gaps G12D): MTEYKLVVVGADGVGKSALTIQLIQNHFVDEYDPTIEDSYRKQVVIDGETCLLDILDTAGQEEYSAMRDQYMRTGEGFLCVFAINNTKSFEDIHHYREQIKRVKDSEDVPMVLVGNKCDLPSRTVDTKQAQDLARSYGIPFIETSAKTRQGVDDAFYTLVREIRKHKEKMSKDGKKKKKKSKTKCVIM
Chain of KRAS G12D (P62937 whole entry): as the sequence (P62937 whole entry) above
Chain of NRAS Q61R (P01111 whole entry Q61R): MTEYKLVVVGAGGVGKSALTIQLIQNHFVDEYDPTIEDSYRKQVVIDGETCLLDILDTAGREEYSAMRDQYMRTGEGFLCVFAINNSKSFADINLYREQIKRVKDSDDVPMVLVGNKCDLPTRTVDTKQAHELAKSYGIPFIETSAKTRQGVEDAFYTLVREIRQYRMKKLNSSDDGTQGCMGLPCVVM
Chain of NRAS Q61R (P62937 whole entry): as the sequence (P62937 whole entry) above
Chain of KRAS G12V (P01116 other isoform, or with tags, fused parts or gaps G12V): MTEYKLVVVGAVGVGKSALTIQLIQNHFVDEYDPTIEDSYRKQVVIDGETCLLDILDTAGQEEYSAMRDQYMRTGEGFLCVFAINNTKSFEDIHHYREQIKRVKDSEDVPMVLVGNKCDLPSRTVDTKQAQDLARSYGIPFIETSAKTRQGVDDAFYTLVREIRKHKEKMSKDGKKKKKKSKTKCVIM
Chain of KRAS G12V (P62937 whole entry): as the sequence (P62937 whole entry) above
Chain of KRAS G12C (P01116-2 other isoform, or with tags, fused parts or gaps G12C): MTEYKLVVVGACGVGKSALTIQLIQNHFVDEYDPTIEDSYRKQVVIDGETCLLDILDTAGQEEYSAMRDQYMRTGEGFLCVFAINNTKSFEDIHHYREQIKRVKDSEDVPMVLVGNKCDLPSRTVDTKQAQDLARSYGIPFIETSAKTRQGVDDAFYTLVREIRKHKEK
Chain of KRAS G12C (P62937 whole entry): as the sequence (P62937 whole entry) above
Chain of KRAS Q61H (P01116 other isoform, or with tags, fused parts or gaps Q61H): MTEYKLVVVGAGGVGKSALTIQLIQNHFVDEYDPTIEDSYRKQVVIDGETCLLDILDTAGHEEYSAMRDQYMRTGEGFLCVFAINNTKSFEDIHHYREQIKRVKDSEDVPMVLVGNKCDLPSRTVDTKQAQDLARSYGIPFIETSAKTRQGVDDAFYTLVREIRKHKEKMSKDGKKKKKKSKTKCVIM
Chain of KRAS Q61H (P62937 whole entry): as the sequence (P62937 whole entry) above
Chain of KRAS G13D (P01116 other isoform, or with tags, fused parts or gaps G13D): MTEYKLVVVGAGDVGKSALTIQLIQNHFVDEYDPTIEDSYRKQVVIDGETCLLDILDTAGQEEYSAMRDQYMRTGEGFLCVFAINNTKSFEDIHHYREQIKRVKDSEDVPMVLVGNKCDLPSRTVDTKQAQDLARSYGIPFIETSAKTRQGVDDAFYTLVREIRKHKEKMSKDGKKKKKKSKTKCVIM
Chain of KRAS G13D (P62937 whole entry): as the sequence (P62937 whole entry) above
Chain of KRAS G12S (P01116 other isoform, or with tags, fused parts or gaps G12S): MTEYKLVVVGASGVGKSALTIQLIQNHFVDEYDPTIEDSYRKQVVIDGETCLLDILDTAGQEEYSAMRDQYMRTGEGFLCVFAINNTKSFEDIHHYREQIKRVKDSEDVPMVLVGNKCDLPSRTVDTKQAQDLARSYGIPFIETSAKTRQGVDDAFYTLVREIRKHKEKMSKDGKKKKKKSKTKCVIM
Chain of KRAS G12S (P62937 whole entry): as the sequence (P62937 whole entry) above
Chain of NRAS WT (P01111 whole entry): as the sequence (P01111 whole entry Q61R) above, with R61Q counted along it
Chain of NRAS WT (P62937 whole entry): as the sequence (P62937 whole entry) above
Chain of NRAS G12C (P01111 whole entry G12C): as the sequence (P01111 whole entry Q61R) above, with G12C, R61Q counted along it
Chain of NRAS G12C (P62937 whole entry): as the sequence (P62937 whole entry) above
Chain of K-Ras G12C(GMP-PNP) binding to BRAF RBD (P01116 other isoform, or with tags, fused parts or gaps G12C): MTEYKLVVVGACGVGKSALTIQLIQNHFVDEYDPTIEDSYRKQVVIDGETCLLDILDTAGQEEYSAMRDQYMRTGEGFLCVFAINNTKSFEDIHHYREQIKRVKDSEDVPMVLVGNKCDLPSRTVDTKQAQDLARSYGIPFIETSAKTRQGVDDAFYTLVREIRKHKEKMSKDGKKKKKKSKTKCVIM
Chain of K-Ras G12C(GMP-PNP) binding to BRAF RBD (P62937 whole entry, canonical isoform): as the sequence (P62937 whole entry) above

Structure (SMILES) | pIC50 ([1]; Homo sapiens, NCI-H358, 120 h) | pIC50 (NRAS WT) | pIC50 (KRAS G12D) | pIC50 (KRAS WT) | pIC50 (KRAS G12V) | pIC50 (KRAS G13D) | pIC50 (NRAS Q61R) | pIC50 (KRAS G13C) | pIC50 (KRAS G12C) | pIC50 (NRAS G12C) | pIC50 (KRAS G12S) | pIC50 ([2]; Homo sapiens, CAPAN-1, 120 h) | pEC50 [3] | pIC50 (KRAS Q61H) | pIC50 (NCI-H358 (K-Ras G12C)) | pIC50 [4] | pIC50 [1] | pIC50 [2]
CCn1c(-c2cccnc2[C@H](C)OC)c2c3cc(ccc31)-c1csc(n1)C[C@H](NC(=O)[C@H](C(C)C)N(C)C(=O)N1CC3(CN(C)C3)C1)C(=O)N1CCC[C@H](N1)C(=O)OCC(C)(C)C2 [Compound A268] | 6.00 to 7.00 | 6.00 to 7.00 | 6.00 to 7.00 | 6.00 to 7.00 | 6.00 to 7.00 | 6.00 to 7.00 | 6.00 to 7.00 | 6.00 to 7.00 | 6.00 to 7.00 | 7.00 to 8.00 | 6.00 to 7.00 | 6.00 to 7.00 | > 5.30 |  |  |  |  | 
CCn1c(-c2cccnc2[C@H](C)OC)c2c3cc(ccc31)-c1csc(n1)C[C@H](NC(=O)[C@H](C(C)C)N(C)C(=O)N1CC(C(C)(C)O)C1)C(=O)N1CCC[C@H](N1)C(=O)OCC(C)(C)C2 [Compound A289] |  | 6.00 to 7.00 | 6.00 to 7.00 | 6.00 to 7.00 | 6.00 to 7.00 | 6.00 to 7.00 | 6.00 to 7.00 | 6.00 to 7.00 | 7.00 to 8.00 | 7.00 to 8.00 | 6.00 to 7.00 | 7.00 to 8.00 |  | 7.00 to 8.00 |  |  |  | 
CCn1c(-c2cccnc2[C@H](C)OC)c2c3cc(ccc31)-c1csc(n1)C[C@H](NC(=O)[C@H](C(C)C)N(C)C(=O)N1C[C@H]3COC[C@H]3C1)C(=O)N1CCC[C@H](N1)C(=O)OCC(C)(C)C2 [Compound A312] | 7.00 to 8.00 | 7.00 to 8.00 | 6.00 to 7.00 | 7.00 to 8.00 | 6.00 to 7.00 | 6.00 to 7.00 |  | 6.00 to 7.00 | 7.00 to 8.00 | 7.00 to 8.00 | 7.00 to 8.00 | 7.00 to 8.00 |  | 7.00 to 8.00 | < 5.00 | < 5.00 |  | 
CCn1c(-c2cccnc2[C@H](C)OC)c2c3cc(ccc31)-c1csc(n1)C[C@H](NC(=O)[C@H](C(C)C)N(C)C(=O)N1CC(C(=O)O)C1)C(=O)N1CCC[C@H](N1)C(=O)OCC(C)(C)C2 [Compound A344] |  | 6.00 to 7.00 | 5.00 to 6.00 | 6.00 to 7.00 | 6.00 to 7.00 | 5.00 to 6.00 | 6.00 to 7.00 | 6.00 to 7.00 | 6.00 to 7.00 | 6.00 to 7.00 | 6.00 to 7.00 | < 5.00 | > 5.30 | 6.00 to 7.00 |  |  |  | 
CCn1c(-c2cccnc2[C@H](C)OC)c2c3cc(ccc31)-c1csc(n1)C[C@H](NC(=O)[C@H](C(C)C)N(C)C(=O)N1CC(O)C1)C(=O)N1CCC[C@H](N1)C(=O)OCC(C)(C)C2 [Compound A358] |  | 6.00 to 7.00 | 6.00 to 7.00 | 6.00 to 7.00 | 6.00 to 7.00 | 6.00 to 7.00 | 6.00 to 7.00 | 6.00 to 7.00 | 7.00 to 8.00 | 7.00 to 8.00 | 6.00 to 7.00 | 7.00 to 8.00 | > 5.30 | 7.00 to 8.00 |  |  |  | 
CCn1c(-c2cccnc2[C@H](C)OC)c2c3cc(ccc31)-c1csc(n1)C[C@H](NC(=O)N1CCC1)C(=O)N1CCC[C@H](N1)C(=O)OCC(C)(C)C2 [Compound A369] |  |  | 5.00 to 6.00 |  | 6.00 to 7.00 | 6.00 to 7.00 | 6.00 to 7.00 | 6.00 to 7.00 | 6.00 to 7.00 |  | 6.00 to 7.00 |  |  | 6.00 to 7.00 |  |  | 6.00 to 7.00 | 6.00 to 7.00
CCn1c(-c2cccnc2[C@H](C)OC)c2c3cc(ccc31)-c1csc(n1)C[C@H](NC(=O)[C@H](C(C)C)N(C)C(=O)N1CC(C#N)(N(C)C)C1)C(=O)N1CCC[C@H](N1)C(=O)OCC(C)(C)C2 [Compound A452] |  | 6.00 to 7.00 |  |  |  |  | 6.00 to 7.00 |  |  |  |  |  | > 5.30 | 6.00 to 7.00 |  |  |  | 
CCn1c(-c2cccnc2[C@H](C)OC)c2c3cc(ccc31)-c1csc(n1)C[C@H](NC(=O)[C@H](C(C)C)N(C)C(=O)N1CC([C@@H](CO)OC)C1)C(=O)N1CCC[C@H](N1)C(=O)OCC(C)(C)C2 [Compound A514] |  | 6.00 to 7.00 | 6.00 to 7.00 | 6.00 to 7.00 | 6.00 to 7.00 | 6.00 to 7.00 | 6.00 to 7.00 | 6.00 to 7.00 | 7.00 to 8.00 | 7.00 to 8.00 | 6.00 to 7.00 | 7.00 to 8.00 |  | 7.00 to 8.00 |  |  |  | 
CCn1c(-c2cccnc2[C@H](C)OC)c2c3cc(ccc31)-c1csc(n1)C[C@H](NC(=O)[C@H](C(C)C)N(C)C(=O)N1CC([C@H](CO)OC)C1)C(=O)N1CCC[C@H](N1)C(=O)OCC(C)(C)C2 [Compound A515] |  | 6.00 to 7.00 | 6.00 to 7.00 | 6.00 to 7.00 | 6.00 to 7.00 | 6.00 to 7.00 | 6.00 to 7.00 | 6.00 to 7.00 | 7.00 to 8.00 | 7.00 to 8.00 | 6.00 to 7.00 | 7.00 to 8.00 | > 5.30 | 7.00 to 8.00 |  |  |  | 
CCn1c(-c2cccnc2[C@H](C)OC)c2c3cc(ccc31)-c1csc(n1)C[C@H](NC(=O)[C@H](C(C)C)N(C)C(=O)N1CCN3C(=O)CN(C)C[C@@H]3C1)C(=O)N1CCC[C@H](N1)C(=O)OCC(C)(C)C2 [Compound A536] | > 8.00 | 7.00 to 8.00 | 6.00 to 7.00 | 7.00 to 8.00 | 6.00 to 7.00 | 6.00 to 7.00 |  | 6.00 to 7.00 | 7.00 to 8.00 | 7.00 to 8.00 | 6.00 to 7.00 | 7.00 to 8.00 | > 5.30 | 7.00 to 8.00 |  |  |  | 
CCn1c(-c2cccnc2[C@H](C)OC)c2c3cc(ccc31)-c1csc(n1)C[C@H](NC(=O)[C@H](C(C)C)N(C)C(=O)N1CC(C(=O)N3CCOCC3)C1)C(=O)N1CCC[C@H](N1)C(=O)OCC(C)(C)C2 [Compound A543] |  | 6.00 to 7.00 | 6.00 to 7.00 | 6.00 to 7.00 | 6.00 to 7.00 | 6.00 to 7.00 | 6.00 to 7.00 | 6.00 to 7.00 | 7.00 to 8.00 | 7.00 to 8.00 | 6.00 to 7.00 | 7.00 to 8.00 |  | 7.00 to 8.00 |  |  |  | 
CCn1c(-c2cccnc2[C@H](C)OC)c2c3cc(ccc31)-c1csc(n1)C[C@H](NC(=O)[C@H](C(C)C)N(C)C(=O)N1CCC13COC3)C(=O)N1CCC[C@H](N1)C(=O)OCC(C)(C)C2 [Compound A560] | 7.00 to 8.00 | 7.00 to 8.00 | 6.00 to 7.00 | 7.00 to 8.00 | 6.00 to 7.00 | 6.00 to 7.00 |  | 6.00 to 7.00 | 7.00 to 8.00 | 7.00 to 8.00 | 6.00 to 7.00 | 6.00 to 7.00 | > 5.30 | 7.00 to 8.00 |  |  |  | 
